Assay results published in PubChem BioAssay (NCI).
Values joined by “and” are separate entries in the source; they are usually repeats but may differ in a detail not shown here. Identical values can stand only once.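 Step 1: Grow cells in 96-well plates. Step 2: Expose to compound for 48 hours at 5 concentrations. Step 3: Interpolate endpoints linearly; if unreached, use highest concentration. GI50 is the concentration that inhibits growth by half. TGI: concentration producing complete growth inhibition.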

Experiments:
Test in all cases: NCI anticancer screen, dose series, 48 h
HS 578T breast = system: HS 578T breast
UO-31 renal = system: UO-31 renal
KM12 colon = system: KM12 colon
HCT-15 colon = system: HCT-15 colon
PC-3 prostate = system: PC-3 prostate
IGROV1 ovarian = system: IGROV1 ovarian
SK-MEL-2 melanoma = system: SK-MEL-2 melanoma
SNB-19 CNS = system: SNB-19 CNS
SW-620 colon = system: SW-620 colon
MDA-MB-435 = system: MDA-MB-435

SMILES	GI50 (HS 578T breast) [µM]	TGI (HS 578T breast) [µM]	GI50 (UO-31 renal) [µM]	TGI (UO-31 renal)	GI50 (KM12 colon) [µM]	TGI (KM12 colon)	TGI (HCT-15 colon)	GI50 (PC-3 prostate) [µM]	TGI (PC-3 prostate) [µM]	GI50 (IGROV1 ovarian) [nM]	TGI (IGROV1 ovarian)	TGI (SK-MEL-2 melanoma)	GI50 (SNB-19 CNS) [nM]	TGI (SNB-19 CNS)	GI50 (SW-620 colon) [nM]	TGI (SW-620 colon) [µM]	GI50 (MDA-MB-435) [µM]	TGI (MDA-MB-435) [µM]	GI50 (HCT-15 colon) [nM]	GI50 (SK-MEL-2 melanoma) [µM]
CN(C)c1ccc(C(=C2C=CC(=[N+](C)C)C=C2)c2ccc(N(C)C)cc2)cc1	0.0875	2.82	0.284	1.23 µM and 1.01 µM	0.0781	0.397 µM and 0.93 µM	1.35 µM and 1.26 µM	0.178	0.963	264	2.26 µM and 1.4 µM	0.472 µM and 0.482 µM	222	1.48 µM and 1.71 µM	69.3	1.23	0.152	0.431	–	–
COc1cc2c3c(n(C)c(=O)c2cc1OC)-c1cc2c(cc1/C3=C\C(N)CN)OCO2 (stereo unspecified)	4.2	41.4	4.44	> 36.5 µM	2.39	28.3 µM	16.6 µM	5.27	20.5	791	–	> 22.8 µM	1360	> 49.3 µM	689	11.9	2.56	17.3	2160	4.71
OCC1OC(n2cnc3c(=S)nc[nH]c32)C(O)C1O (stereo unspecified)	12.8	> 2500	–	> 2500 µM	7.46	> 2500 µM	> 2500 µM	6.71	> 2500	12200	2490 µM and > 100 µM	> 2500 µM	> 65200	> 1960 µM	7290	> 2500	3.89	> 2500	6620	> 100
CC(=O)O[C@H]1CC[C@@]2(C)[C@@H](CC[C@@H]3[C@@H]2CC[C@]2(C)C=C(C=O)C[C@@H]32)C1	4.41	50.1	18.8	35.3 µM	12.7	30 µM	12.1 µM	6.53	27.5	3730	14.6 µM	23.1 µM	14500	30.8 µM	3420	10.7	5.01	19.2	2260	7.53
CC12CC(OC(=O)[C@]1(C)O)[C@@H]([C@]1(O)CC[C@H]3[C@@H]4C[C@H]5O[C@]56[C@@H](O)C=CC(=O)[C@]6(C)[C@H]4CC[C@@]31C)C2 (stereo partly specified)	–	35.7	–	16.8 µM	–	28.7 µM	25.3 µM	–	26.5	–	35.1 µM	21 µM	–	> 100 µM	–	12.4	–	29.4	–	–
